Square brackets hold non-standard residues; d marks the D form. Peptide text beside a SMILES is read from it. * marks the point of attachment. SBn = c1ccc(CS*)cc1
Molecular target: human α-thrombin (Homo sapiens, UniProt P00734)
Assay: Kinetics of substrate hydrolysis by proteolytic enzyme (initial rates, centrifugal analyzer, Hanes plot)
Format: biochemical
Conditions: substrate for human α-thrombin
Text: The Michaelis-Menten constant, Km, is a kinetic parameter related to the affinity of a substrate for an enzyme under a given set of reaction conditions. The Km is defined as the substrate concentration at which the initial reaction velocity is one-half of the maximal initial reaction velocity. The maximal velocity (vmax), another important kinetic parameter, when divided by the enzyme concentration, yields kcat. The determination of Km and kcat for a given substrate with various enzymes allows the determination of the selectivity of that substrate for a given enzyme.
Km and vmax values can be determined by utilizing a centrifugal analyzer (GEMSAEC system, available from Electro-Nucleonics, Inc., Fairfield, N.J.) to measure the initial rates of substrate hydrolysis by the proteolytic enzyme. Five substrate concentrations ([S]), ranging from about one-fifth to five times the expected Km, can be used for triplicate determinations in this centrifugal analyzer. The initial reaction rates (v) can then be plotted in a Hanes plot, [S]/v versus [S], for a determination of Km (the absolute value of the X-intercept) and vmax (the reciprocal of the slope) through linear regression analysis. Alternative procedures are available for the calculation of Km and vmax.
For a given enzyme, lower Km values for a series of substrates indicate higher affinity of the substrate to the enzyme. This allows the utilization of lesser amounts of substrate while still operating at vmax.

| SMILES | Km [µM] | kcat [s⁻¹] |
| --- | --- | --- |
| CC(C)C[C@H](NC(=O)[C@H](N)C(C)C)C(=O)N[C@@H](CCCCN)C(=O)SCc1ccccc1 [H--D-Val--Leu--Lys--S--Bzl] (H-[dV]-Leu-Lys-SBn) | 16 | 94 |
| NCCCC[C@H](NC(=O)OCc1ccccc1)C(=O)SCc1ccccc1 [Z--Lys--S--Bzl] | 38 | 84 |

From US4434096A, “Substrates for the quantitative determination of proteolytic enzymes” (E. I. Du Pont de Nemours and Company, priority 1981, dated 1984)
